The values below come from article PMC5430599, “Antiplasmodial dihetarylthioethers target the coenzyme A synthesis pathway in Plasmodium falciparum erythrocytic stages” (Malaria Journal, 2017).

The structures appear in SMILES notation. In brackets after ≈: the same amount, converted by molar mass. Read-outs that look alike come from different tables or passages of the source.

Data set [1] deals with asexual erythrocytic stages of transgenic NF54-luc P. falciparum. The experiment in a line: Luciferase-based viability screening for anti-malarial activity. In kind it is cell-based, Plasmodium falciparum. The settings on record: >50% inhibition of viability rated active; for inhibition at 3 µM: Plasmodium falciparum, NF54, 48 h, read-out: % inhibition, PfNF54-Luc at 3 µM, 3 µM, 48 h. As for the experimental part: Asexual erythrocytic stages of transgenic NF54-luc P. falciparum were used for the luciferase-based viability assay. These parasites constitutively express high levels of luciferase. The parasites were cultured as described previously. Parasite culture with parasitaemia of 0.5–1% was dispensed in triplicate into white 96-well flat-bottom plates (each well contains 250 µL) (NUNC, Roskilde, […], 90% N2, 5% CO2, and 5% O2). 0.01% DMSO was included in the untreated infected RBC cultures as negative control, since the compounds stock initially was diluted in DMSO and each treatment well also contained 0.01% DMSO. Subsequently, 100 µL RPMI1640 media was removed from each well and a 100 µL volume of the Bright-Glo® substrate solution added to each well. The resultant cleavage product of the reaction, light, was measured using a FLUOROSKAN FL luminometer (Thermo), to ascertain viable parasites. Untreated cultures were used as negative controls and to calculate the inhibition rate (0% inhibition of parasite growth). Blasticidin (Sigma-Aldrich, St. Louis, MO, USA), used for selection of transfected parasites, was included as a positive control on each plate and gave >90% inhibition of parasite growth at concentration 2 µg/mL. Compounds with >50% inhibition of viability were rated as actives. Experiments were performed in triplicate and were repeated at least twice.

The test system of data set [2] is Plasmodium falciparum parasites (3D7 strain). The experiment in a line: Coenzyme A rescue assay (imaging-based growth inhibition, with or without 0.8 mM CoA). The data set is classed as cell-based. The settings on record: for IC50 shift with CoA supplementation: IC50 CoA / IC50 solvent; for IC50-ratio (CoA/solvent): IC50 with 0.8 mM CoA / IC50 solvent, threshold 5× significant; for IC50: Plasmodium falciparum. The protocol:
Plasmodium falciparum parasites (3D7 strain) were grown in RPMI 1640 supplemented with 25 mM HEPES, 5 mg/mL Albumax II, and 0.37 mM hypoxanthine. Parasites were subjected to two rounds of sorbitol synchronization before undergoing compound treatment. Ring stage parasites were exposed to the experimental compounds alone, or in combination with 0.8 mM coenzyme A (CoA) in 384-wells imaging microplates (CellCarrier, PerkinElmer), as previously described. […] Puromycin 5 µM and untreated solvent were used as in-plate positive and negative controls, respectively. Samples were dissolved in DMSO to a final assay DMSO concentration of 0.4%. […] All sample and control wells contained the same final amounts of solvents. Plates were incubated for 72 h at 90% N2, 5% CO2, 5% O2, then parasites were stained with 2-(4-amidinophenyl)-1H-indole-6-carboxamidine (DAPI), and imaged using an Opera QEHS micro-plate confocal imaging system (PerkinElmer) with 405 nm excitation and 450/50 emission filter, using a 20× water immersion objective. Images were analysed as previously described, to obtain normalized % inhibition data, which were then used to calculate IC50 values, through a four parameter logistic curve fitting in GraphPad Prism v.6. The experiment was carried out in two independent biological replicates, each consisting of two technical replicates. Dose–response curves are illustrated in the Additional file 4.

A short description of data set [3]: Aqueous thermodynamic solubility, miniaturized shake-flask method with HPLC. The data set is classed as physicochemical. The settings on record: for solubility thermodynamic / solubility: aqueous phosphate buffer, 25 °C, pH 7.4, aqueous buffer, thermodynamic from solid. The protocol:
The aqueous solubility was determined using a miniaturized shake-flask-method. In brief, the compound (0.25–1.0 mg) was incubated in a Whatman Mini-Uniprep vial with aqueous phosphate buffer, pH 7.4, (300 µL) in an incubation shaker (IKA® KS 3000 ic control, Staufen, Germany) at 25 °C, 400 rpm. Presence of undissolved compound was checked at 24 and 48 h. After 24, 48, or 72 h of shaking, the filter plunger was punched into the vial and the concentration in the supernatant was determined by HPLC (AUC method, isocratic HPLC, at specific λmax as indicated in the Additional file 2). For the calibration, at least three different dilutions of the compounds from DMSO stock solutions diluted with ACN were quantified. Preparation of buffer pH 7.4: to a solution of Na2HPO4∙2 H2O (290 mg), K2HPO4 (20 mg) and NaCl (808 mg) in water (ad 100.0 mL), 12% aqueous HCl was added dropwise until the pH reached 7.4. In the case of 3a the concentration in the supernatant was below the limit of quantification. […] Further details of the solubility testing methods are described in Additional file 2, including calibration concentration ranges, composition of chromatographic eluents, and wavelength for measurement of absorbance.
Two stock solutions of each compound with a concentration of 10 mM (except for 8g: 1 mM) were prepared. Three dilutions with ACN were prepared (concentration range: 3d: 100 µM – […]
8g: 10 µM – 0.3 µM; 8k: 100 µM – 10 µM) from the stock solutions of the test compounds and measured as duplicates by HPLC (isocratic elution: solvent indicated in Additional file 2, Table, injection volume: indicated in Additional file 2, Table, flow rate: 1.000 mL/min, column temperature: 40 °C, time of detection: 8 min, detection by DAD at specific λmax as indicated in Additional file 2, Table). The area under the curve (% AUC) of the substance peak was determined and together with the respective concentration a linear calibration graph was created with Microsoft Excel (2010, Microsoft Corporation) for every compound.
Additional file 2, Table Af1: Solvents for isocratic elution, injection volumes and specific λmax […]
ID solvent injection volume [µL] λmax [nm]
Sample preparation and measurement of compound solubility
Samples of test compounds (0.25‐1.0 mg) were placed in Whatman‐Uni‐Prep® vials and aqueous phosphate buffer, pH 7.4 (300 µL, composition is indicated in Additional file 2, Table Af1) was added. The presence of undissolved compound was a requirement to determine the thermodynamic solubility. The vials were capped with the appropriate filter, […]
Additionally the vials were sealed with Parafilm M (Bemis Flexible Packaging, Neenah, WI, USA). The samples were incubated in an incubation shaker (IKA® KS 3000 ic control, Staufen, Germany) at 400 rpm and 25 °C for […]
24‐72 h. The presence of undissolved compound was checked at 24 and 48 h. Measurement of the samples was performed after 24 h, 48 h and 72 h; he filter plunger was punched into the vial and the concentration in the supernatant was determined by HPLC using the same methods as for the calibration solutions (Additional file 2, Table). All samples were measured in triplicate. By determination of the area under the curve (% AUC) of the substance and the specific linear calibration graph, the concentration of every compound in aqueous buffer solution was calculated. By comparison of the samples after 24 h and 48 h it was checked if equilibrium had been achieved after 24 h; if not, the samples were compared after 48 h and 72 h to check if equilibrium had been achieved after 48 h. In the case of 3a the concentration in the supernatant was below the limit of quantification. Therefore the lowest […]
Additional file 2, Table Af1: Composition of phosphate buffer pH 7.4 for determination of aqueous solubility. Modified according to Ph. Eur.8 […]
a Adjustment to pH 7.4 was carried out using a pH meter equipped with a glass electrode. […]
Lüddens, H., Synthesis of GABA A receptor agonists and evaluation of their α‐ […]

Where [4] appears, read: 3D7, 72 h, 0.8 mM CoA (rescue), 72 h, read-out: IC50 [µM], Pf3D7 + 0.8 mM CoA.
The mark [5] stands for this setting: 3D7, 72 h, no CoA (solvent, non-rescue), 72 h, read-out: IC50 [µM], Pf3D7 + solvent.
[6] abbreviates: aqueous buffer pH 7.4, shake flask.
Where [7] appears, read: thermodynamic solubility, aqueous buffer pH 7.4, 25 °C, equilibrium after 24 h (c) or 48 h (d) per footnote, read-out: S0, exp.
Where [8] appears, read: thermodynamic solubility, aqueous buffer pH 7.4, 25 °C, equilibrium after 24 h (c) or 48 h (d) per footnote.

As for `c1csc(Sc2ncnc3sccc23)n1` [Compound 8d], the inhibition at 3 µM in data set [1] was 99.9%. The “IC50 shift with CoA supplementation” value in data set [2] was 67 fold. In addition, in data set [2], the “IC50-ratio (CoA/solvent)” value was determined as 67.3. Also, the IC50 in data set [2] (setting [4]) came out at 2.6 ± 0.4 µM; in data set [2] (setting [5]), 0.039 ± 0.001 µM. Moreover, the “Log S0, exp” value in data set [3] (setting [6]) is reported as −4.44. For the same compound, in data set [3] (setting [7]), the solubility thermodynamic is 36.4 µM (≈ 9.15 µg/mL).

`Nc1nnc(Sc2ncnc3sccc23)s1` [Compound 8f]: the inhibition at 3 µM in data set [1] turned out to be 99.7 ± 0.1%. Also, the “IC50 shift with CoA supplementation” value in data set [2] is reported as 117 fold. The “IC50-ratio (CoA/solvent)” value in data set [2] was 117. Besides, the IC50 in data set [2] (setting [4]) was above 11 µM; in data set [2] (setting [5]), 0.096 ± 0.006 µM. Also, the “Log S0, exp” value in data set [3] (setting [6]) is listed as −5.36. Besides, the solubility thermodynamic in data set [3] (setting [7]) amounted to 4.4 µM (≈ 1.18 µg/mL).

`c1coc(Sc2ncnc3sccc23)n1` [Compound 8e]: in data set [1], the inhibition at 3 µM is 99.5 ± 0.5%. Further, the “IC50 shift with CoA supplementation” value in data set [2] came to 34 fold. Also, the “IC50-ratio (CoA/solvent)” value in data set [2] came out at 34.5. For the same compound, the IC50 was 2.6 ± 0.4 µM in data set [2] (setting [4]); 0.0747 ± 0.021 µM in data set [2] (setting [5]); 0.075 µM in data set [2] (3D7, no CoA, read-out: IC50, 3D7 strain). The “fold higher antiplasmodial activity” value in data set [2] (compared to 8c) is listed as 17 fold. In data set [3] (setting [6]), the “Log S0, exp” value is reported as −2.88. The same compound returned a solubility in data set [3] (pH 7.4, shake flask) of 1330 µM (≈ 313 µg/mL). Besides, the aqueous solubility in data set [3] (pH 7.4, shake flask, listed as 8e (KuWei173)) is above 1000 µM. Besides, the “S0, exp [µM]” value in data set [3] (setting [8]) is 1.33 × 10^3 c µM.

On to `c1ccc2[nH]c(Sc3ncnc4sccc34)nc2c1` [Compound 8g], for which, in data set [1], the inhibition at 3 µM was determined as 95 ± 1.1%. In addition, in data set [2], the “IC50-ratio (CoA/solvent)” value was 7.23. Moreover, the IC50 in data set [2] (setting [4]) worked out at 0.531 ± 0.007 µM; in data set [2] (setting [5]), 0.0734 ± 0.0022 µM. The “Log S0, exp” value in data set [3] (setting [6]) is on record as −6.37.

As for `Cn1ccnc1Sc1ncnc2sccc12` [Compound 8c], in data set [1], the inhibition at 3 µM amounted to 96.5 ± 1.6%. Further, the IC50 in data set [2] (setting [4]) is 2.31 ± 0.17 µM; in data set [2] (setting [5]) it was 1.3 µM. Moreover, in data set [3] (aqueous buffer pH 7.4, shake flask, read-out: Log S0, exp (converted)), the solubility thermodynamic was 1780 µM (≈ 442 µg/mL). The solubility in data set [3] (pH 7.4, shake flask) is above 1000 µM. In addition, the “S0, exp [µM]” value in data set [3] (setting [8]) was determined as 1780 µM·days.

Regarding `c1coc(-c2nnc(Sc3ncnc4sccc34)o2)c1` [Compound 3a], the “% inhibition, PfNF54-Luc at 3 µM” value in data set [1] (3 µM, 48 h) amounted to 80.8 ± 0.5%. In addition, in data set [1], the inhibition at 3 µM is 80%. Moreover, in data set [2], the “IC50-ratio (CoA/solvent)” value was determined as 16.3. For the same compound, the IC50 in data set [2] (setting [4]) came to 4.61 ± 0.15 µM; in data set [2] (setting [5]) it was 0.283 ± 0.073 µM. Also, in data set [3] (setting [6]), the “Log S0, exp” value is below −6.00. Further, the solubility thermodynamic in data set [3] (setting [7]) is below 1 µM.

For `c1cnc2[nH]c(Sc3ncnc4sccc34)nc2c1` [Compound 8k], the inhibition at 3 µM in data set [1] was 98 ± 0.2%. Besides, the “IC50-ratio (CoA/solvent)” value in data set [2] amounted to 7.11. For the same compound, the IC50 in data set [2] (setting [4]) came to 1.06 ± 0.03 µM; in data set [2] (setting [5]), 0.149 ± 0.021 µM. The “Log S0, exp” value in data set [3] (setting [6]) is given as −4.11. In addition, in data set [3] (setting [7]), the solubility thermodynamic turned out to be 77 µM (≈ 22 µg/mL).
